Laboratory results as given in the NIST ThermoML archive (doi:10.1016/j.jct.2013.08.034).

Experiments:
[1] = Liquid; for electrical conductivity / viscosity: 101 kPa; for electrical conductivity: Conductivity Meter Jenco 3107; for viscosity: Cone and plate viscometry; for mass density: 101.33 kPa, Vibrating tube method
[2] = xn = mol fraction of the nth substance listed; details: 101 kPa, Liquid, x1 = 1; for electrical conductivity: Conductivity Meter Jenco 3107; for viscosity: Cone and plate viscometry

CCCC[n+]1ccn(C)c1.O=S(=O)([N-]S(=O)(=O)C(F)(F)F)C(F)(F)F
[1]
Details	electrical conductivity [S/m]	mass density [kg/m3]	viscosity [mPa·s]
293.15 K	0.337	1439.27	62.08
298.15 K	0.4	1434.3	50.05
303.15 K	0.472	1429.4	41.24
308.15 K	0.552	1424.57	33.65
313.15 K	0.64	1419.61	28.28
318.15 K	0.733	1414.67	23.91
323.15 K	0.835	1409.65	20.64
328.15 K	0.944	–	17.9
333.15 K	–	–	15.51

CCCC[n+]1ccn(C)c1.O=S(=O)([N-]S(=O)(=O)C(F)(F)F)C(F)(F)F + CC1COC(=O)O1
[2]
Details	electrical conductivity [S/m]	viscosity [mPa·s]
293.15 K	0.337	62.08
298.15 K	0.4	50.05
303.15 K	0.472	41.24
308.15 K	0.552	33.65
313.15 K	0.64	28.28
318.15 K	0.733	23.91
323.15 K	0.835	20.64
328.15 K	0.944	17.9
333.15 K	–	15.51

CC1COC(=O)O1 (configuration not stated) [4-methyl-1,3-dioxolan-2-one]
[1]
Details	mass density [kg/m3]	viscosity [mPa·s]
293.15 K	1204.81	2.86
298.15 K	1199.02	2.65
303.15 K	1194	2.44
308.15 K	1188.57	2.23
313.15 K	1183.11	2.05
318.15 K	1177.55	1.9
323.15 K	1171.96	1.78
328.15 K	–	1.63
333.15 K	–	1.54
